Assay results as given in patent US20260294849A1, “METHODS FOR TREATING CORNEAL INJURIES” (National Taiwan University, priority 2023, published 2026).
“Also recorded” adds a separate entry of the source. Where a name gives a salt, the structure may show the parent alone.

Legend:
Assay type in all cases: in vivo, mice (nT/nG transgenic)
[1] = test system: corneal endothelial cells; assay: Corneal endothelial cell density after laser ablation (confocal cell counting); settings: for Corneal endothelial cell density: day 2 after laser ablation, intracameral injection, means±SEM, Control 728.5 ± 55.01, BSS 633 ± 33.7; for Protection of the corneal endothelial cells against injuries: order: Formoterol Sulfate>Formoterol PG>Formoterol BG>Formoterol>THBP>Permethrin>Fenbutrazate>Levonordefrin>Encainide>Bhilawanol A
Description: (§1) nT/nG transgenic mice (Jax #023035; the Jackson Laboratory), having a Cre-reporter allele comprising a cell nuclear-targeted tandem dimerTomato (tdTomato; an orange fluorescent protein) and an enhanced green fluorescent protein (EGFP) (Prigge, Wiley et al., 2013; “Nuclear double-fluorescent reporter for in vivo and ex vivo analyses of biological transitions in mouse nuclei.”), were used in the present study for investigating the cell density and the healing process in corneal endothelium. The mice were characterized in that, prior to Cre recombination, widespread fluorescence expression of tdTomato (localized to the cell nucleus) was observed; whereas following Cre recombination, nuclear-localized green fluorescence was detected. All procedures on mice were approved by and performed in accordance with the Institutional Animal Care and Use Committees of National Taiwan University.
(§2) To eliminate the corneal endothelial cells, the multiphoton femtosecond laser was employed to induce cell ablation due to its ability to precisely control cell ablation in time and space with minimal injury made to adjacent tissues (Rompolas, Deschene et al., 2012; “Live imaging of stem cell and progeny behaviour in physiological hair-follicle regeneration.”). Once the corneal endothelial cells needed to be removed were identified, laser ablation was performed on the selected area (50 μm×50 μm) with a 880 nm laser wavelength and a 500 mW laser power in a single scan, with repeatedly adjusting the laser along the z-axis to achieve optimal results.
(§3) Following laser ablation, the aforementioned drugs were intracamerally injected to the cornea of the mice immediately using a customized needle attached to a 5 μl syringe (Hamilton). To avoid the motion, a cotton swab was used to prop the eyeball during the intracameral injection above on the peripheral region of the cornea. Each eye was slowly applied with a single dose of 0.5 μl different drugs.
The mice were anesthesia and sacrificed on day 2 after laser ablation with the indicated treatments administered (as shown in FIGS. 1-3), and their eyes were enucleated and fixed in 4% paraformaldehyde (PFA) at 4° C. overnight. After dissecting the cornea from the eyeball, the cornea was cut into a four-petal shape, placed on glass slides, mounted with a mounting medium (Vector), and immobilized by using a coverslip. All the fluorescent images were acquired by a SP8 confocal microscope (Leica), with steps set at 1 μm per z-section for a 20× objective. The cell nuclear ware manually segmented by using spot plugin in Imaris (Oxford instruments). For each sample, a circle area with a diameter of 300 μm was selected to count the cell numbers, so as to quantify the cell density in different drug treatments.
All the experimental data were performed by Prism and represented as means±SEM. The statistical significance of difference between the experimental groups was evaluated by Student's t test. P values<0.05 were considered statistically significant.
The protective effect of the present compound(s) on the corneal endothelial cells against injuries was evaluated by counting the cell number and/or the density of the corneal endothelial cells, instead of the keratocytes in corneal stroma or the other cell populations in trabecular meshwork.

[2] = test system: laser-injured cornea; assay: Corneal observation (opacity, edema, ulcer formation, ocular surface) via gross images after laser ablation and intracameral injection; settings: for Ocular surface of the eye: Day 2 after laser ablation and intracameral injection, BSS group: mild inflammation and irritation; for Edema / Opacity / Ulcer formation: laser-injured cornea after treatment, single intracameral injection 0.5 μl, Day 2; for Edema: BSS group: mild edema; for Opacity: BSS group: slight opacity; for Ulcer formation: BSS group: slight ulcer formation
Description: as §1, §2, §3
The test compound(s) was/were intracamerally administered to the mice following laser ablation of the cornea, and then the corneal opacity was initially evaluated via gross images of the cornea.

[3] = test system: corneal endothelial cells; assay: Corneal wound healing by multiphoton microscopy (intravital imaging) after laser ablation; settings: intracameral injection; for Corneal wound healing, Day 1: Day 1 after laser ablation, BSS group could not seal the wound defects; for Corneal wound healing, Day 2: Day 2 after laser ablation, BSS group: compromised integrity until Day 2
Description: as §1
For live image acquisition, mice were anesthetized by intramuscular injection of 50-80 mg/kg Zoletil (Virbac). The corneal surface was anesthetized with 0.4% oxybuprocaine hydrochloride (Sigma) in saline. An eye holder was used to minimize artifacts during intravital imaging, as previously described (Wu, Wang et al., 2019; “Intravital multiphoton microscopic imaging platform for ocular surface imaging.”). Intravital imaging was performed using a laser wavelength of 880 nm for tdTomato excitation and a laser power of approximately 35 mW at the sample plane to optimize the image quality without photobleaching. A water-immersion 20×/NA1.0 objective lens (Olympus) was used to focus the laser light onto the eyes, after the laser light was reflected by the main dichroic mirror (Semrock). The tdTomato signals were spectrally separated using a bandpass filter of 585/40 nm (Semrock). To prevent dryness of the ocular surface during imaging, an eye gel (Vidisic Gel, Dr. Gerhard Mann Chem-Pharm) with a refractive index of 1.338 was used as an immersion medium on the cornea. Image stacks along the z-axis with a step size of 1 μm were acquired, and the dimensions of the images acquired in this study were 512×512 pixels.
as §2, §3
The efficacy of the tested drugs in promoting the corneal wound healing was investigated by a multiphoton microscopy analysis, in which changes in the wound site following drug injection was tracked.

Compound	Corneal endothelial cell density [1]	Protection of the corneal endothelial cells against injuries [1]	Ocular surface of the eye [2]	Edema [2]	Opacity [2]	Ulcer formation [2]	Corneal wound healing, Day 1 ([3]; 6 μM)	Corneal wound healing, Day 2 ([3]; 30 μM (238.875 ng/kg))	Corneal wound healing, Day 2 ([3]; 6 μM)
2,2,4,4-Tetrahydroxybenzophenone [THBP]	724 ± 12.8 cell number/the area of a circ	protected the corneal endothelial cells	maintained the ocular surface of the eye moist and transparent	No	No	No	accelerated wound healing and sealed the defects on Day 1		
CCCCCC/C=C\CCCCCCCc1cccc(O)c1O [Bhilawanol A]	674.3 ± 8 cell number/the area of a circ	protected the corneal endothelial cells	maintained the ocular surface of the eye moist and transparent	No	No	No		promoted wound healing on Day 2	
COc1ccc(C(=O)Nc2ccccc2CCC2CCCCN2C)cc1 (stereo not drawn) [Encainide, reference compound]	690 ± 8.8 cell number/the area of a circ	protected the corneal endothelial cells	maintained the ocular surface of the eye moist and transparent	No	No	No			promoted wound healing on Day 2
CCC(C(=O)OCCN1CCOC(c2ccccc2)C1C)c1ccccc1 (stereo not drawn) [Fenbutrazate, reference compound]	720.8 ± 14.9 cell number/the area of a circ	protected the corneal endothelial cells	maintained the ocular surface of the eye moist and transparent	No	slightly hazy spot formation; also recorded: Slight hazy	No			promoted wound healing on Day 2
COc1ccc(CC(C)NCC(OC2O[C@H](C(=O)O)[C@@H](O)[C@H](O)[C@H]2O)c2ccc(O)c(NC=O)c2)cc1 (stereo partly drawn) [Formoterol BG, Formoterol Benzyl Glucuronide]	796 ± 24.9 cell number/the area of a circ	protected the corneal endothelial cells	maintained the ocular surface of the eye moist and transparent	No	No	No			promoted wound healing on Day 2
COc1ccc(C[C@@H](C)NC[C@H](O)c2ccc(O[C@@H]3O[C@H](C(=O)O)[C@@H](O)[C@H](O)[C@H]3O)c(NC=O)c2)cc1 [Formoterol PG, Formoterol Phenolic Glucuronide]	799.5 ± 23.56 cell number/the area of a circ	protected the corneal endothelial cells	maintained the ocular surface of the eye moist and transparent	No	No	No			promoted wound healing on Day 2
COc1ccc(C[C@@H](C)NC[C@H](O)c2ccc(OS(=O)(=O)O)c(NC=O)c2)cc1 [Formoterol Sulfate]	805.25 ± 22.3 cell number/the area of a circ	protected the corneal endothelial cells	maintained the ocular surface of the eye moist and transparent	No	No	No			promoted wound healing on Day 2
C[C@H](N)[C@H](O)c1ccc(O)c(O)c1 [Levonordefrin, reference compound]	710.5 ± 41.7 cell number/the area of a circ	protected the corneal endothelial cells	maintained the ocular surface of the eye moist and transparent	No	No	No	accelerated wound healing and sealed the defects on Day 1		
CC1(C)C(C=C(Cl)Cl)C1C(=O)OCc1cccc(Oc2ccccc2)c1 (stereo not drawn) [Permethrin, reference compound]	721.8 ± 12.9 cell number/the area of a circ	protected the corneal endothelial cells	maintained the ocular surface of the eye moist and transparent	No	No	No			promoted wound healing on Day 2
